Assay results from patent publication US9233921B2, “Potent poxvirus inhibitor” (priority 2013, dated 2016).
Entries after “also recorded” stand apart in the source; their conditions may differ. Where two headings read alike, the source gives them in different places.

Assays:
BSC-1 cells = test: Cytotoxicity (CC50)
mD4-VV hybrid virus = test: microbe, parasite or virus in culture; type: cell-based; settings: read-out: IC50 mD4-VV hybrid virus
vaccinia virus = test: microbe, parasite or virus in culture; type: cell-based, Vaccinia virus (WR strain)
recombinant VACV (vL1Ri) = type: cell-based, vaccinia virus in BSC-1 cells
Cytotoxicity (CC50) = settings: African green monkey, BSC-1 cells
[1] = Table 5, mean ± SEM of triplicates
[2] = Orthopoxvirus vaccinia, BSC-1, read-out: IC50 (antiviral)

With Cc1ccc2c(Sc3cc(Cl)cc(Cl)c3)c(CC(N)=O)[nH]c2c1 [Compound 24b, 2-(3-((3,5-Dichlorophenyl)thio)-6-methyl-1H-indol-2-yl)acetamide] as the molecule, how does the CC50 (BSC-1 cells; [1]) read?
Its CC50 is 26 ± 3 µM.

And the IC50 (mD4-VV hybrid virus)?
Its IC50 is 0.097 µM.

And the “SI (selectivity index = CC50/IC50)” value (vaccinia virus)?
The value was 570.

What about the IC50 (vaccinia virus; Orthopoxvirus vaccinia) of the same molecule?
Its IC50 is 0.046 µM.

With Nc1ccn(C[C@@H](CO)OCP(=O)(O)O)c(=O)n1 [CDV, cidofovir] as the molecule, how does the “EGFP expression (late reporter gene)” value (recombinant VACV (vL1Ri)) read?
The value was “equally effective at a higher dose; also recorded: clearly showed suppression of EGFP when pretreated”.

What about the “EGFP expression, compound added after virus adsorption” value (recombinant VACV (vL1Ri); 8 h) of the same molecule?
Its value is “comparable EGFP expression and CPE to DMSO vehicle; also recorded: EGFP expression comparable to vehicle-treatment”.

With Cc1ccc2c(Sc3cc(Cl)cc(Cl)c3)c(CCC(=O)O)[nH]c2c1 [Compound 24d, 3-(3-((3,5-Dichlorophenyl)thio)-6-methyl-1H-indol-2-yl)propanoic acid] as the molecule, how does the CC50 (BSC-1 cells; [1]) read?
The CC50 was 36 ± 14 µM.

What about the “SI (selectivity index = CC50/IC50)” value (vaccinia virus) of the same molecule?
The value was 152.

What about the “fold decrease in potency / loss of activity compared to 24a” value (vaccinia virus) of the same molecule?
Its value is about 5 fold.

And the IC50 (vaccinia virus; Orthopoxvirus vaccinia)?
The IC50 was 0.244 µM.

For “6-Methyl-3-(phenylthio)-1H-indole-2-carboxylate [Compound 29]”, which CC50 (BSC-1 cells; read-out: CC50 (cytotoxicity), BSC-1 cells, NA = not active (assays requiring >200 μM)) is on record?
Its CC50 is 26 µM.

And the IC50 (vaccinia virus; read-out: IC50 (antiviral))?
The IC50 was 10 µM.

Which results are given for O=C(O)c1[nH]c2cc(Br)ccc2c1Sc1ccc(Cl)cc1 [Compound 1f, 6-Bromo-3-((4-chlorophenyl)thio)-1H-indole-2-carboxylic acid]?
CC50 (Cytotoxicity (CC50)): 90 µM; IC50 (vaccinia virus; [2]): 40 to 51 µM; IC50 (vaccinia virus; read-out: IC50 (antiviral)): 51 µM

With Cc1cccc2c(Sc3ccc(Cl)c(Cl)c3)c(C(=O)O)[nH]c12 [Compound 22, 3-((3,4-Dichlorophenyl)thio)-7-methyl-1H-indole-2-carboxylic acid] as the molecule, how does the CC50 (Cytotoxicity (CC50)) read?
Its CC50 is 150 µM.

And the “fold activity improvement over the parent 1” value (vaccinia virus)?
The value was 2-11 fold.

What does the source list for Cc1ccc2c(Sc3ccc(Cl)cc3Cl)c(C(=O)O)[nH]c2c1 [Compound 20, 3-((2,4-Dichlorophenyl)thio)-6-methyl-1H-indole-2-carboxylic acid]?
CC50 (Cytotoxicity (CC50)): 129 µM; fold activity improvement over the parent 1 (vaccinia virus): 2-11 fold

With Cc1ccc2c(Sc3ccc(C(F)(F)F)cc3)c(C(=O)O)[nH]c2c1 [Compound 18g, 6-Methyl-3-((4-(trifluoromethyl)phenyl)thio)-1H-indole-2-carboxylic acid] as the molecule, how does the CC50 (Cytotoxicity (CC50)) read?
The CC50 was 137 µM.

And the IC50 (vaccinia virus; [2])?
Its IC50 is 33 µM.

What does the source list for Cc1ccc2c(Sc3ccc(Cl)cc3)c(C(=O)O)[nH]c2c1 [Compound 1, 3-((4-Chlorophenyl)thio)-6-methyl-1H-indole-2-carboxylic acid]?
CC50 (Cytotoxicity (CC50)): 192 µM; IC50 (vaccinia virus; Orthopoxvirus vaccinia): 82 µM; IC50 (vaccinia virus; [2]): 82 µM

What does the source list for Cc1ccc2c(Sc3ccc(Br)cc3)c(C(=O)O)[nH]c2c1 [Compound 18c, 3-((4-Bromophenyl)thio)-6-methyl-1H-indole-2-carboxylic acid]?
CC50 (Cytotoxicity (CC50)): 133 µM; IC50 (antiviral) (vaccinia virus): loss of activity

For COC(=O)c1[nH]c2c(C)cccc2c1Sc1ccc(Cl)cc1 [Compound 8, Methyl 3-((4-chlorophenyl)thio)-7-methyl-1H-indole-2-carboxylate], which CC50 (Cytotoxicity (CC50)) is on record?
Its CC50 is 32 µM.

And the IC50 (vaccinia virus; [2])?
The IC50 was 23 µM.

Which results are given for Cc1ccc2c(Sc3cc(Cl)cc(Cl)c3)c(CCC(N)=O)[nH]c2c1 [Compound 24a, 3-(3-((3,5-Dichlorophenyl)thio)-6-methyl-1H-indol-2-yl)propanamide]?
CC50 (BSC-1 cells; [1]): 16 ± 5 µM; cytotoxicity within experimental time frame (BSC-1 cells; cells treated 9 h, FIG. 7A): minimal cytotoxicity; IC50 (mD4-VV hybrid virus): 0.03 µM; SI (selectivity index = CC50/IC50) (vaccinia virus): 374; IC50 (vaccinia virus; Orthopoxvirus vaccinia): 0.042 µM

Which CC50 (Cytotoxicity (CC50)) does the source give for Cc1cccc2[nH]c(C(=O)O)c(Sc3cc(Cl)c(Cl)cc3Cl)c12 [Compound 30b, 4-Methyl-3-((2,4,5-trichlorophenyl)thio)-1H-indole-2-carboxylic acid] here?
The CC50 was 65 µM.

What about the IC50 (vaccinia virus; [2]) of the same molecule?
Its IC50 is 18 µM.

For O=C(O)c1[nH]c2ccccc2c1Sc1cc(Cl)cc(Cl)c1 [Compound 26, 3-((3,5-Dichlorophenyl)thio)-1H-indole-2-carboxylic acid], which CC50 (Cytotoxicity (CC50)) is on record?
The CC50 was 133 µM.

And the “fold decrease in activity compared to 24” value (vaccinia virus)?
The value was about 6 fold.

What about the IC50 (vaccinia virus; [2]) of the same molecule?
The IC50 was 43 µM.

Which results are given for Cc1ccc2c(Sc3ccc(Cl)c(Cl)c3)c(C(=O)O)[nH]c2c1 [Compound 21, 3-((3,4-Dichlorophenyl)thio)-6-methyl-1H-indole-2-carboxylic acid]?
CC50 (Cytotoxicity (CC50)): 76 µM; fold activity improvement over the parent 1 (vaccinia virus): 2-11 fold

With CCCCCCNC(=O)CCc1[nH]c2cc(C)ccc2c1Sc1cc(Cl)cc(Cl)c1 [Compound 24e, 3-(3-((3,5-Dichlorophenyl)thio)-6-methyl-1H-indol-2-yl)-N-hexylpropanamide] as the molecule, how does the CC50 (BSC-1 cells; [1]) read?
Its CC50 is 27 ± 4 µM.

Which results are given for Cc1ccc2c(Sc3cc(Cl)cc(Cl)c3)c(C(=O)O)[nH]c2c1 [Compound 24, 3-((3,5-Dichlorophenyl)thio)-6-methyl-1H-indole-2-carboxylic acid]?
CC50 (Cytotoxicity (CC50)): 75 µM; SI (selectivity index = CC50/IC50) (vaccinia virus): 11; fold activity improvement over the parent 1 (vaccinia virus): 2-11 fold; IC50 (vaccinia virus; Orthopoxvirus vaccinia): 7 µM; IC50 (vaccinia virus; [2]): 7 to 37 µM

Which CC50 (Cytotoxicity (CC50)) does the source give for Cc1ccc2c(Sc3cc(Cl)cc(Cl)c3)c(CCCC(N)=O)[nH]c2c1 [Compound 24c, 4-(3-((3,5-Dichlorophenyl)thio)-6-methyl-1H-indol-2-yl)butanamide] here?
The CC50 was 243 ± 2 µM.

And the IC50 (mD4-VV hybrid virus)?
The IC50 was 0.199 µM.

And the “SI (selectivity index = CC50/IC50)” value (vaccinia virus)?
Its value is 115.

What about the “fold decrease in potency / loss of activity compared to 24a” value (vaccinia virus) of the same molecule?
Its value is about 5 fold.

What about the IC50 (vaccinia virus; Orthopoxvirus vaccinia) of the same molecule?
The IC50 was 0.208 µM.
